Converted amounts (≈) assume the structure as drawn. Where a name gives a salt, the structure may show the parent alone. Read-outs that look alike come from different tables or passages of the source.
Columns and labels:
Assay in all cases: In vitro antibacterial activity (MIC, agar dilution)
Assay type in all cases: cell-based
[1] = system: Staph. aureus 1775 Cipro.R.; details: Staphylococcus aureus
Method: (§1) Each plate was inoculated with 1:100 (or 1:10 for slow-growing strains, primarily Micrococcus and Streptococcus) dilutions of up to 32 different microorganisms, using a Steers replicator block calibrated to deliver approximately 10^4 colony forming units (CFUs). The inoculated plates were incubated at from about 35° C. to about 37° C. for approximately 20-24 hours. In o addition, a control plate using BHI agar containing no test compound was prepared and incubated at the beginning and at the end of each test. The quinolone antibacterial ciprofloxacin was used as a control ("Cntl").
(§2) The MIC was defined as the lowest concentration of test compound yielding no growth (a slight haze or sparsely isolated colonies at the inoculum spot) as compared to the growth control containing no test compound.

[2] = system: Staph. aureus 5278; details: Staphylococcus aureus
Method: as §1, §2

[3] = system: E. coli H560; details: Escherichia coli
Method: as §1, §2

[4] = system: P. aeruginosa 5263; details: Pseudomonas aeruginosa
Method: as §1, §2

[5] = system: Nocardia asteroides ATCC 9970; details: ATCC9970
Method: as §1, §2

[6] = system: Staph. aureus A5177; details: Staphylococcus aureus
Method: as §1, §2

[7] = system: P. aeruginosa A5007; details: Pseudomonas aeruginosa
Method: as §1, §2

[8] = system: Strep. pyogenes EES61; details: Streptococcus pyogenes
Method: as §1, §2

[9] = system: Staph. aureus NCTC10649; details: Staphylococcus aureus
Method: as §1, §2

[10] = system: Staph. aureus CMX 553; details: Staphylococcus aureus, CMX553
Method: as §1, §2

[11] = system: Staph. epidermidis 3519; details: Staphylococcus epidermidis
Method: as §1, §2

[12] = system: P. aeruginosa K799/61; details: Pseudomonas aeruginosa
Method: as §1, §2

[13] = system: Pseudomonas cepacia 296I; details: Burkholderia cepacia
Method: as §1, §2

[14] = system: M. luteus ATCC 9341; details: Micrococcus luteus, ATCC9341
Method: as §1, §2

[15] = system: Acinetobacter calcoaceticus CMX 669; details: CMX669
Method: as §1, §2

[16] = system: Strep. pyogenes 930 CONST; details: Streptococcus pyogenes
Method: as §1, §2

[17] = system: Staph. aureus 642A; details: Staphylococcus aureus
Method: as §1, §2

[18] = system: M. luteus ATCC 4698; details: Micrococcus luteus, ATCC4698
Method: as §1, §2

[19] = system: E. coli DC-2; details: Escherichia coli, DC2
Method: as §1, §2

[20] = system: P. aeruginosa 2862; details: Pseudomonas aeruginosa
Method: as §1, §2

[21] = system: E. coli SS; details: Escherichia coli
Method: as §1, §2

[22] = system: Escherichia coli Juhl
Method: as §1, §2

[23] = system: Candida albicans CCH 442; details: CCH442
Method: as §1, §2

[24] = system: Entero. faecium ATCC 8043; details: Enterococcus faecium, ATCC8043
Method: as §1, §2

[25] = system: Strep. pyogenes 2458 INDUC; details: Streptococcus pyogenes
Method: as §1, §2

[26] = system: E. coli KNK 437; details: Escherichia coli, KNK437
Method: as §1, §2

[27] = system: Myco. smegmatis ATCC 114; details: Mycolicibacterium smegmatis, ATCC114
Method: as §1, §2

[28] = system: P. aeruginosa K799/WT; details: Pseudomonas aeruginosa
Method: as §1, §2

[29] = system: Klebsiella pneumoniae ATCC 8045; details: ATCC8045
Method: as §1, §2

[30] = system: Providencia stuartii CMX 640; details: CMX640
Method: as §1, §2

[31] = system: P. aeruginosa BMH 10; details: Pseudomonas aeruginosa, BMH10
Method: as §1, §2

[32] = system: Strep. bovis A5169; details: Streptococcus equinus
Method: as §1, §2

[33] = system: Enter. aerogenes ATCC 13048; details: Klebsiella aerogenes, ATCC13048
Method: as §1, §2

[34] = system: Strep. agalactiae CMX 508; details: Streptococcus agalactiae, CMX508
Method: as §1, §2

[35] = system: Staph. aureus ATCC 6538P; details: Staphylococcus aureus, ATCC6538P
Method: as §1, §2

[36] = E. coli H560, agar dilution, read-out: MIC
[37] = P. aeruginosa 5263, agar dilution, read-out: MIC
[38] = P. aeruginosa A5007, agar dilution, read-out: MIC
[39] = M. luteus ATCC 9341, agar dilution, read-out: MIC
[40] = Acinetobacter calcoaceticus CMX 669, agar dilution, read-out: MIC
[41] = M. luteus ATCC 4698, agar dilution, read-out: MIC
[42] = E. coli DC-2, agar dilution, read-out: MIC
[43] = P. aeruginosa 2862, agar dilution, read-out: MIC
[44] = E. coli SS, agar dilution, read-out: MIC
[45] = Candida albicans CCH 442, agar dilution, read-out: MIC
[46] = E. coli KNK 437, agar dilution, read-out: MIC
[47] = P. aeruginosa K799/WT, agar dilution, read-out: MIC
[48] = P. aeruginosa BMH 10, agar dilution, read-out: MIC
[49] = Strep. bovis A5169, agar dilution, read-out: MIC
[50] = Entero. faecium ATCC 8043, agar dilution, read-out: MIC

SMILES	MIC [1] [µg/mL]	MIC [2] [µg/mL]	MIC [3, 36] [µg/mL]	MIC [4, 37] [µg/mL]	MIC [6] [µg/mL]	MIC [7, 38] [µg/mL]	MIC [8] [µg/mL]	MIC [9] [µg/mL]	MIC [10] [µg/mL]	MIC [11] [µg/mL]	MIC [12] [µg/mL]	MIC [13] [µg/mL]	MIC [16] [µg/mL]	MIC [17] [µg/mL]	MIC [22] [µg/mL]	MIC [25] [µg/mL]	MIC [30] [µg/mL]	MIC [33] [µg/mL]	MIC [34] [µg/mL]	MIC [35] [µg/mL]	further results
N[C@H]1CCC[C@H]2CN(c3c(F)cn4c(=O)c(C(=O)O)cc5c4c3Oc3ccccc3-5)C[C@H]21 (relative stereo) [Example 3, 1-(3aα, 4β, 7aα-4-aminooctahydro-[1H]-isoindol-2-yl)-2-fluoro-5H-5-oxo-benzo[5.6]pyrano[2.3.4-ij]quinolizine-6-carboxylic acid hydrochloride]	3.1	0.78	6.2	> 100	0.78	> 100	0.39	0.78	0.78	0.78	1.56	> 100	0.2	0.78	6.2	0.39	100	25	0.39	0.78	MIC ([5]; Nocardia asteroides): 1.56 µg/mL; MIC [14, 39]: 0.39 µg/mL; MIC [15, 40]: 12.5 µg/mL; MIC [18, 41]: 0.78 µg/mL; MIC [19, 42]: 100 µg/mL; MIC [20, 43]: > 100 µg/mL; MIC [21, 44]: 0.78 µg/mL; MIC [23, 45]: > 100 µg/mL; MIC [24]: 1.56 µg/mL; MIC [26, 46]: 25 µg/mL; MIC [27]: 0.78 µg/mL; MIC [28, 47]: > 100 µg/mL; MIC ([29]; Klebsiella pneumoniae): 1.56 µg/mL; MIC [31, 48]: 100 µg/mL; MIC [32, 49]: 0.39 µg/mL
O=C(O)c1cn(C2CC2)c2cc(N3CCNCC3)c(F)cc2c1=O [Ciprofloxacin, ciprofloxacin, reference compound]	> 100	0.39 (≈ 1.18 µM)	–	–	0.39 (≈ 1.18 µM)	–	0.78 (≈ 2.35 µM)	0.39 (≈ 1.18 µM)	0.78 (≈ 2.35 µM)	0.39 (≈ 1.18 µM)	0.02 (≈ 0.0604 µM)	3.1 (≈ 9.36 µM)	0.78 (≈ 2.35 µM)	0.39 (≈ 1.18 µM)	0.01 (≈ 0.0302 µM)	0.39 (≈ 1.18 µM)	0.78 (≈ 2.35 µM)	0.02 (≈ 0.0604 µM)	0.39 (≈ 1.18 µM)	0.2 (≈ 0.604 µM)	MIC ([3]; H560): 0.01 µg/mL (≈ 0.0302 µM); MIC [4]; 5263: 12.5 µg/mL (≈ 37.7 µM); MIC ([5]; Nocardia asteroides): 12.5 µg/mL (≈ 37.7 µM); MIC ([7]; A5007): 0.1 µg/mL (≈ 0.302 µM); MIC [14]: 1.56 µg/mL (≈ 4.71 µM); MIC ([15]; Acinetobacter calcoaceticus): 0.39 µg/mL (≈ 1.18 µM); MIC [18]: 0.78 µg/mL (≈ 2.35 µM); MIC [19]: 0.2 µg/mL (≈ 0.604 µM); MIC [20]; 2862: 12.5 µg/mL (≈ 37.7 µM); MIC [21]: 0.005 µg/mL (≈ 0.0151 µM); MIC ([23]; Candida albicans): > 100 µg/mL; MIC [24, 50]: 0.39 µg/mL (≈ 1.18 µM); MIC [26]: 0.2 µg/mL (≈ 0.604 µM); MIC [27]: 0.78 µg/mL (≈ 2.35 µM); MIC ([28]; K799/WT): 0.1 µg/mL (≈ 0.302 µM); MIC ([29]; Klebsiella pneumoniae): 0.02 µg/mL (≈ 0.0604 µM); MIC [31]: 0.1 µg/mL (≈ 0.302 µM); MIC ([32]; A5169): 1.56 µg/mL (≈ 4.71 µM)
O=C(O)c1cc2c3c(c(N4CCOCC4)c(F)cn3c1=O)Oc1ccccc1-2 [Example 1, 1-(1-morpholinyl)-2-fluoro-5H-5-oxo-benzo[5.6]pyrano[2,3.4-ij]quinolizine-6-carboxylic acid]	1.56 (≈ 4.08 µM)	0.78 (≈ 2.04 µM)	> 100	> 100	0.78 (≈ 2.04 µM)	> 100	3.1 (≈ 8.11 µM)	0.39 (≈ 1.02 µM)	0.78 (≈ 2.04 µM)	0.39 (≈ 1.02 µM)	12.5 (≈ 32.7 µM)	100 (≈ 262 µM)	6.2 (≈ 16.2 µM)	0.78 (≈ 2.04 µM)	> 100	6.2 (≈ 16.2 µM)	> 100	> 100	3.1 (≈ 8.11 µM)	0.78 (≈ 2.04 µM)	MIC [14, 39]: 1.56 µg/mL (≈ 4.08 µM); MIC [15, 40]: 1.56 µg/mL (≈ 4.08 µM); MIC [18, 41]: 0.39 µg/mL (≈ 1.02 µM); MIC [19, 42]: > 100 µg/mL; MIC [20, 43]: > 100 µg/mL; MIC [21, 44]: 0.39 µg/mL (≈ 1.02 µM); MIC [24, 50]: 25 µg/mL (≈ 65.4 µM); MIC [26, 46]: 50 µg/mL (≈ 131 µM); MIC [28, 47]: > 100 µg/mL; MIC ([29]; Klebsiella pneumoniae): 12.5 µg/mL (≈ 32.7 µM); MIC [31, 48]: > 100 µg/mL; MIC [32, 49]: 25 µg/mL (≈ 65.4 µM)
NC1CCN(c2c(F)cn3c(=O)c(C(=O)O)cc4c3c2Oc2ccccc2-4)C1 (centres unmarked) [Example 2, 1-(3-amino-pyrrolidinyl)-2-fluoro-5H-5-oxo-benzo[5,6]pyrano[2.3.4-ij]quinolizine-6-carboxylic acid hydrochloride]	6.2	6.2	3.1	> 100	6.2	100	3.1	3.1	6.2	3.1	6.2	> 100	3.1	6.2	3.1	3.1	> 100	6.2	3.1	6.2	MIC ([5]; Nocardia asteroides ATCC 9970, agar dilution, read-out: MIC): 3.1 µg/mL; MIC [14, 39]: 3.1 µg/mL; MIC [15, 40]: 6.2 µg/mL; MIC [18, 41]: 3.1 µg/mL; MIC [19, 42]: 12.5 µg/mL; MIC [20, 43]: > 100 µg/mL; MIC [21, 44]: 0.78 µg/mL; MIC [23, 45]: > 100 µg/mL; MIC [24, 50]: 6.2 µg/mL; MIC [26, 46]: 3.1 µg/mL; MIC [27]: 3.1 µg/mL; MIC [28, 47]: 50 µg/mL; MIC ([29]; Klebsiella pneumoniae ATCC 8045, agar dilution, read-out: MIC): 1.56 µg/mL; MIC [31, 48]: 25 µg/mL; MIC [32, 49]: 3.1 µg/mL

From patent publication US5618813A, “Benzo[5.6]pyrano[2.3.4-ij]quinolizine and benzo[5.6]thiopyrano[2.3.4-ij]quinolizine derivatives as antibacterial and antineoplastic agents” (Abbott Laboratories, priority 1995, dated 1997)
